In patent publication US7858630B2, “D3 and 5-HT2A receptor modulators” (Hoffmann-La Roche Inc., priority 2008, dated 2010) one finds Ki data, which are given here for ten compounds.

Molecules are shown by their SMILES.

The target of assay [1] is T1, human dopamine D3 receptor (Homo sapiens, UniProt P35462).
T1 construct: expressed in transfected cells; host or cells: HEK-293 EBNA cells, transient transfection; membrane preparation
The assay can be described thus: Radioligand binding ([3H]-spiperone) to membranes of HEK-293 EBNA cells expressing human D3 receptor. The note with it: human D3, 0.5 nM [3H]-spiperone, HEK-293 EBNA membranes, 1 h at RT. The method, boiled down: (§1)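 Membranes from HEK-293 EBNA cells transiently transfected with the receptor were incubated 1 h at RT with ten test concentrations (10 μM–0.1 nM) and ~0.7 nM [3H]-spiperone (D2), 0.5 nM [3H]-spiperone (D3) or 1.1 nM [3H]-ketanserin (5-HT2A). Nonspecific binding was set with 10 μM spiperone, bound radioactivity was read by filtration and scintillation, and Ki was taken from IC50 via Cheng-Prusoff.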

The target of assay [2] is T2, human dopamine D2 receptor (Homo sapiens, UniProt P14416).
T2 construct: expressed in transfected cells; host or cells: HEK-293 EBNA cells, transient transfection; membrane preparation
T2 sequence (P14416 whole entry): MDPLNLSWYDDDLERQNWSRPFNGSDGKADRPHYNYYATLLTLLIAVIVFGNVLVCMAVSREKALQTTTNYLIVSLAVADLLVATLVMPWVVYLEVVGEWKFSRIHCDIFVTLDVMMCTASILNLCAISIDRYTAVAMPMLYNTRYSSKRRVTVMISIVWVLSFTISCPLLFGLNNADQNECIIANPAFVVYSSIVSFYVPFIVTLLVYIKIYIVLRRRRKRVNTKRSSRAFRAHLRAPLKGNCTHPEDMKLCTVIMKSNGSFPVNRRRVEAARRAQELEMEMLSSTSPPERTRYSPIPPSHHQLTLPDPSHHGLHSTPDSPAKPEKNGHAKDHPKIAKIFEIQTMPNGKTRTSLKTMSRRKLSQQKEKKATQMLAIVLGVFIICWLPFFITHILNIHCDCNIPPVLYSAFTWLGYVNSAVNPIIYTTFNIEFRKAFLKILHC
The experiment in a line: Radioligand binding ([3H]-spiperone) to membranes of HEK-293 EBNA cells expressing human D2 receptor. The note with it: human D2, 0.7 nM [3H]-spiperone, HEK-293 EBNA membranes, 1 h at RT. The method, boiled down:
as §1

The target of assay [3] is T3, human serotonin 5-HT2A receptor (Homo sapiens, UniProt P28223).
T3 construct: expressed in transfected cells; host or cells: HEK-293 EBNA cells, transient transfection; membrane preparation
T3 sequence (P28223 whole entry): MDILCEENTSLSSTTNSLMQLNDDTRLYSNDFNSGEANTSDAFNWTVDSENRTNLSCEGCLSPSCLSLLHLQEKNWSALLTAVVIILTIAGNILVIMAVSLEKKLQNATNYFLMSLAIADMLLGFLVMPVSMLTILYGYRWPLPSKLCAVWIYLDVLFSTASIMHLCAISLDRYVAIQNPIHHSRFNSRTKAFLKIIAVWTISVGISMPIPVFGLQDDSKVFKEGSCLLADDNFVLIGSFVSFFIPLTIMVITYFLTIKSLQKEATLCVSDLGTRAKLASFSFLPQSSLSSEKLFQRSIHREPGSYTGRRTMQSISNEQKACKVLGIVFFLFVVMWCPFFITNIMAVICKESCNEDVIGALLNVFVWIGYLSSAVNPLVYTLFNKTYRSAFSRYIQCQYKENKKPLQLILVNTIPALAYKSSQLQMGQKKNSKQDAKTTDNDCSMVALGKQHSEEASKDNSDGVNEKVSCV
The experiment in a line: Radioligand binding ([3H]-ketanserin) to membranes of HEK-293 EBNA cells expressing human 5-HT2A receptor. The note with it: 1.1 nM [3H]-ketanserin, HEK-293 EBNA membranes, 1 h at RT. In short, it runs like this:
as §1

T1 sequence (P35462 whole entry): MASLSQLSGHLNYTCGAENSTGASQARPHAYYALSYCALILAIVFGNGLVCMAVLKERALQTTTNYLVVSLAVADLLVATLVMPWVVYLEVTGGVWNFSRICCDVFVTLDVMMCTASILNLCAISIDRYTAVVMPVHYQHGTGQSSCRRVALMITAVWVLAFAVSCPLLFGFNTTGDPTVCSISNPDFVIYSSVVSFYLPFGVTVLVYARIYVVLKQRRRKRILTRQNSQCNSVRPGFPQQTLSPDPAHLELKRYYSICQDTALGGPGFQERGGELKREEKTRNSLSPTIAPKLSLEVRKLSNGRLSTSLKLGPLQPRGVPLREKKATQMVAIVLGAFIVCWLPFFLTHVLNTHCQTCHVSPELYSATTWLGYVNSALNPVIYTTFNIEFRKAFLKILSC

As usually defined, the Ki is a measure of affinity in units of concentration, obtained from inhibition or displacement. With `COCCC(=O)N[C@H]1CC[C@H](CCN2CCN(c3noc4cc(Cl)ccc34)CC2)CC1` [Example 29, N-trans-(4-{2-[4-(6-Chloro-benzo[d]isoxazol-3-yl)-piperazin-1-yl]-ethyl}-cyclohexyl)-3-methoxy-propionamide], the Ki in assay [1] turned out to be 8.68 nM; in assay [2], 490 nM; in assay [3], 8.59 nM.
On the same counts, the results for `O=C(N[C@H]1CC[C@H](CCN2CCN(c3noc4cc(Cl)c(Cl)cc34)CC2)CC1)C1CCOCC1` [Example 95, Tetrahydro-pyran-4-carboxylic acid N-trans-(4-{2-[4-(5,6-dichloro-benzo[d]isoxazol-3-yl)-piperazin-1-yl]-ethyl}-cyclohexyl)-amide] are 117 nM, 7950 nM and 49.9 nM.
Regarding `CC(=O)N[C@H]1CC[C@H](CCN2CCN(c3noc4ccccc34)CC2)CC1` [Example 2, N-trans-{4-[2-(4-benzo[d]isoxazol-3-yl-piperazin-1-yl)-ethyl]-cyclohexyl}-acetamide], the Ki in assay [1] was 8.88 nM; in assay [2], 272 nM; in assay [3], 4.96 nM.
On the same counts, the results for `COC1(CC(=O)N[C@H]2CC[C@H](CCN3CCN(c4noc5cc(F)c(F)cc45)CC3)CC2)CCOCC1` [Example 62, N-trans-(4-{2-[4-(5,6-Difluoro-benzo[d]isoxazol-3-yl)-piperazin-1-yl]-ethyl}-cyclohexyl)-2-(4-methoxy-tetrahydro-pyran-4-yl)-acetamide] are 13.4 nM, 352 nM and 9.92 nM.
As for `CCS(=O)(=O)N[C@H]1CC[C@H](CCN2CCN(c3noc4cc(F)c(F)cc34)CC2)CC1` [Example 68, Ethanesulfonic acid N-trans-(4-{2-[4-(5,6-difluoro-benzo[d]isoxazol-3-yl)-piperazin-1-yl]-ethyl}-cyclohexyl)-amide], the Ki in assay [1] was determined as 16.4 nM; in assay [2], 641 nM; in assay [3], 17.8 nM.
For the compound `CCC(=O)N[C@H]1CC[C@H](CCN2CCN(c3noc4cc(F)c(Cl)cc34)CC2)CC1` [Example 86, N-trans-(4-{2-[4-(5-Chloro-6-fluoro-benzo[d]isoxazol-3-yl)-piperazin-1-yl]-ethyl}-cyclohexyl)-propionamide], the Ki amounted to 5.16 nM in assay [1], 250 nM in assay [2] and 9.53 nM in assay [3].
As to `O=C(N[C@H]1CC[C@H](CCN2CCN(c3noc4cc(F)c(Cl)cc34)CC2)CC1)c1ccc(Cl)s1` [Example 84, 5-Chloro-thiophene-2-carboxylic acid N-trans-(4-{2-[4-(5-chloro-6-fluoro-benzo[d]isoxazol-3-yl)-piperazin-1-yl]-ethyl}-cyclohexyl)-amide], the Ki in assay [1] is 2.94 nM; in assay [2] it was 258 nM; in assay [3] it was 7.11 nM.
As to `COC(CC(=O)N[C@H]1CC[C@H](CCN2CCN(c3noc4cc(F)c(Cl)cc34)CC2)CC1)OC` [Example 78, N-trans-(4-{2-[4-(5-Chloro-6-fluoro-benzo[d]isoxazol-3-yl)-piperazin-1-yl]-ethyl}-cyclohexyl)-3,3-dimethoxy-propionamide], the Ki was determined as 6.26 nM in assay [1], 1310 nM in assay [2] and 5.05 nM in assay [3].
On the same counts, the results for `CC(=O)N[C@H]1CC[C@H](CCN2CCN(c3noc4cc(F)c(Cl)cc34)CC2)CC1` [Example 73, N-trans-(4-{2-[4-(5-Chloro-6-fluoro-benzo[d]isoxazol-3-yl)-piperazin-1-yl]-ethyl}-cyclohexyl)-acetamide] are 9.74 nM, 559 nM and 16.8 nM.
On the same counts, the results for `COC(CC(=O)N[C@H]1CC[C@H](CCN2CCN(c3noc4ccc(F)cc34)CC2)CC1)OC` [Example 26, N-trans-(4-{2-[4-(5-Fluoro-benzo[d]isoxazol-3-yl)-piperazin-1-yl]-ethyl}-cyclohexyl)-3,3-dimethoxy-propionamide] are 2.12 nM, 761 nM and 15.9 nM.
